In patent publication US6451839B1, “Indole sPLA2 inhibitors” (Eli Lilly and Company, priority 1998, dated 2002):

Molecular target: T1, recombinant human secreted phospholipase A2 (Homo sapiens, UniProt P14555)
T1 sequence (P14555 21-144): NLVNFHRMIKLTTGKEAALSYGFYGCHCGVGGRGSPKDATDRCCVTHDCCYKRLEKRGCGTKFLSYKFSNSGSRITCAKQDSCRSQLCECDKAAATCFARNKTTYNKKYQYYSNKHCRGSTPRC
Test: chromogenic assay of recombinant human secreted phospholipase A2 inhibition
Assay type: biochemical
Conditions: diheptanoyl thio-PC substrate, pH 7.5, 40° C. for 30 minutes, absorbance at 405 nanometers, triplicate; read-out: Inhibition of human secreted PLA2 IC50 ± mean deviation
Text: The following chromogenic assay procedure was used to identify and evaluate inhibitors of recombinant human secreted phospholipase A2. The assay described herein has been adapted for high volume screening using 96 well microtiter plates. A general description of this assay method is found in the article, “Analysis of Human Synovial Fluid Phospholipase A2 on Short Chain Phosphatidylcholine-Mixed Micelles: Development of a Spectrophotometric Assay Suitable for a Microtiterplate Reader”, by Laure J. Reynolds, Lori L. Hughes, and Edward A Dennis, Analytical Biochemistry, 204, pp. 190-197, 1992 (the disclosure of which is incorporated herein by reference):
RACEMIC DIHEPTANOYL THIO—PC
racemic 1,2-bis(heptanoylthio)-1,2-dideoxy-sn-glycero-3-phosphorylcholine
The reaction mixture thus obtained contains lmM diheptanoly thio-PC substrate, 0.29 mm Triton X-100™ detergent, and 0.12 mm DTMB in a buffered aqueous solution at pH 7.5.
1. Add 0.2 ml reaction mixture to all wells;
2. Add 10 ul test compound (or solvent blank) to appropriate wells, mix 20 seconds;
3. Add 50 nanograms of sPLA2 (10 microliters) to appropriate wells;
4. Incubate plate at 40° C. for 30 minutes;
5. Read absorbance of wells at 405 nanometers with an automatic plate reader.
All compounds were tested in triplicate. Typically, compounds were tested at a final concentration of 5 ug/ml. […] Lack of color development at 405 nanometers evidenced inhibition. Compounds initially found to be active were reassayed to confirm their activity and, if sufficiently active, IC50 values were determined. […] In all cases, % inhibition measured at 405 nanometers generated by enzyme reactions containing inhibitors relative to the uninhibited control reactions was determined. Each sample was titrated in triplicate and result values were averaged for plotting and calculation of IC50 values. IC50 were determined by plotting log concentration versus inhibition values in the range from 10-90% inhibition.

| Structure (SMILES) | IC50 [µM] |
| --- | --- |
| CCc1c(NC(N)=O)c2c(OCC(=O)O)cccc2n1Cc1ccccc1 [Example 1, [[2-Ethyl-1-(phenylmethyl)-3-ureido-1H-indol-4-yl]oxy]acetic acid] | 0.049 |
| CCc1c(NC(C)=O)c2c(OCC(=O)O)cccc2n1Cc1ccccc1 [Example 2, [[3-Acetamido-2-ethyl-1-(phenylmethyl)-1H-indol-4-yl]oxy]acetic acid] | 65 |
| CCc1c(NC(=O)C(F)(F)F)c2c(OCC(=O)O)cccc2n1Cc1ccccc1 [Example 3, [[3-trifluoroacetamido-2-ethyl-1-(phenylmethyl)-1H-indol-4-yl]oxy]acetic acid] | 51 |
| CCc1c(NC(=O)CBr)c2c(OCC(=O)O)cccc2n1Cc1ccccc1 [Example 4, [[3-(Bromo)acetamido-2-ethyl-1-(phenylmethyl)-1H-indol-4-yl]oxy]acetic acid] | 45 |
| CCc1c(NC(N)=S)c2c(OCC(=O)O)cccc2n1Cc1ccccc1 [Example 5, [[2-Ethyl-1-(phenylmethyl)-3-thioureido-1H-indol-4-yl]oxy]acetic acid] | 6.8 |
| CCc1c(NC(=O)C(N)=O)c2c(OCC(=O)O)cccc2n1Cc1ccccc1 [Example 6, [[2-ethyl-3-oxamide-1-(phenylmethyl)-1H-indol-4-yl]oxy]acetic acid] | 13 |
| CCc1c(NC(N)=O)c2c(OCC(=O)O)cccc2n1Cc1ccccc1-c1ccccc1 [Example 7, [[2-ethyl-1-(2-phenyl-phenylmethyl)-3-ureido-1H-indol-4-yl]oxy]acetic acid] | 0.021 |
| CCc1c(NC(N)=O)c2c(OCC(=O)O)cccc2n1Cc1ccccc1Br [Example 8, [[2-ethyl-1-(2-bromo-phenylmethyl)-3-ureido-1H-indol-4-yl]oxy]acetic acid] | 0.074 |
| CCc1c(NC(N)=O)c2c(OCC(=O)O)cccc2n1Cc1ccccc1-c1ccc(F)cc1 [Example 9, [[2-ethyl-1-(2-(4-fluorophenyl)-phenylmethyl)-3-ureido-1H-indol-4-yl]oxy]acetic acid] | 0.017 |
